Measured values reported in patent US11008337B2, “Chiral diaryl macrocycles as modulators of protein kinases” (Turning Point Therapeutics, Inc., priority 2015, dated 2021).

How the values were obtained:
Assay type in all cases: cell-based
[1] = tested on: Colorectal cell lines KM 12 (harboring endogenous TPM3-TRKA fusion gene); assay: Cell proliferation assay, KM12 cells (CellTiter-Glo); settings: Homo sapiens, 72 hours incubation
Procedure: (§1) Cell Proliferation Assays.
Colorectal cell lines KM 12 (harboring endogenous TPM3-TRKA fusion gene) cells were cultured in DMEM medium, supplemented with 10% fetal bovine serum and 100 U/mL of penicillin/streptomycin. 5000 cells were seeded in 384 well white plate for 24 hours before compounds treatment. Cell proliferation was measured using CellTiter-Glo luciferase-based ATP detection assay (Promega) following the manufactures's protocol after 72 hours incubation. IC50 determinations were performed using GraphPad Prism software (GraphPad, Inc., San Diego, Calif.). […] 5000 cells were seeded in 384 well white plate for 24 hours before compounds treatment. Cell proliferation was measured using CellTiter-Glo luciferase-based ATP detection assay (Promega) following the manufactures's protocol after 72 hours incubation. IC50 determinations were performed using GraphPad Prism software (GraphPad, Inc., San Diego, Calif.).

[2] = target: T1, EML4-ALK Ba/F3 (Homo sapiens, UniProt Q9UM73); assay: Cell proliferation assay, EML4-ALK Ba/F3 stable cell line (CellTiter-Glo); settings: Ba/F3-EML4-ALK wild type (variant 1) cells, 72 hours compound incubation; read-out: Cell Proliferation IC50 EML4-ALK Ba/F3
T1 construct: fused on or other part: Q9HC35 (Echinoderm microtubule-associated protein-like 4)
Text: (§2) Creation of CD74-ROS1 and EML4-ALK Ba/F3 Stable Cell Lines and Cell Proliferation Assays.
(§3) The CD74-ROS1 wild-type gene and EML4-ALK wild-type gene (variant 1) were synthesized at GenScript and cloned into pCDH-CMV-MCS-EF1-Puro plasmid (System Biosciences, Inc). Ba/F3-CD74-ROS1 and Ba/F3-EML4-ALK wild type cell lines were generated by infecting Ba/F3 cells with lentivirus containing CD74-ROS1 wide-type and EML4-ALK wild type. Stable cell lines were selected by puromycin treatment, followed by IL-3 withdrawal. 3000 cells were seeded in 384 well white plate overnight before compound treatment. Cell proliferation was measured using CellTiter-Glo luciferase-based ATP detection assay (Promega) following the manufactures's protocol after 72 hours of various concentration of compound incubation. IC50 determinations were performed using GraphPad Prism software (GraphPad, Inc., San Diego, Calif.).

[3] = tested on: T cell lymphoma Karpas-299 cell line (harboring endogenous NPM-ALK fusion gene); assay: Cell proliferation assay, Karpas-299 cells (CellTiter-Glo); settings: Homo sapiens, 72 hours incubation
Procedure: as §1
(§4) Colorectal cell lines KM 12 (harboring endogenous TPM3-TRKA fusion gene) cells were cultured in DMEM medium, supplemented with 10% fetal bovine serum and 100 U/mL of penicillin/streptomycin. 5000 cells were seeded in 384 well white plate for 24 hours before compounds treatment. Cell proliferation was measured using CellTiter-Glo luciferase-based ATP detection assay (Promega) following the manufactures's protocol after 72 hours incubation. IC50 determinations were performed using GraphPad Prism software (GraphPad, Inc., San Diego, Calif.). Alternatively, essential thrombocythemia cell line SET-2 cells (harboring endogenous JAK2 […] point mutation) or T cell lymphoma Karpas-299 cell line (harboring endogenous NPM-ALK fusion gene) were cultured in RPMI medium, supplemented with 10% fetal bovine serum and 100 U/mL of penicillin/streptomycin. 5000 cells were seeded in 384 well white plate for 24 hours before compounds treatment. Cell proliferation was measured using CellTiter-Glo luciferase-based ATP detection assay (Promega) following the manufactures's protocol after 72 hours incubation. IC50 determinations were performed using GraphPad Prism software (GraphPad, Inc., San Diego, Calif.).

[4] = target: T2, CD74-ROS1 Ba/F3 (Homo sapiens, UniProt P08922); assay: Cell proliferation assay, CD74-ROS1 Ba/F3 stable cell line (CellTiter-Glo); settings: Ba/F3-CD74-ROS1 wild type cells, 72 hours compound incubation; read-out: Cell Proliferation IC50 CD74-ROS1 Ba/F3
T2 construct: fused on or other part: P04233 (HLA class II histocompatibility antigen gamma chain)
Text: as §2, §3

[5] = tested on: essential thrombocythemia cell line SET-2 cells (harboring endogenous JAK2 point mutation); assay: Cell proliferation assay, SET-2 cells (CellTiter-Glo); settings: Homo sapiens, 72 hours incubation, read-out: Cell Proliferation IC50 SET2
Procedure: as §1, §4

T2 sequence (P08922 whole entry, change not shown, the tested form may be a part): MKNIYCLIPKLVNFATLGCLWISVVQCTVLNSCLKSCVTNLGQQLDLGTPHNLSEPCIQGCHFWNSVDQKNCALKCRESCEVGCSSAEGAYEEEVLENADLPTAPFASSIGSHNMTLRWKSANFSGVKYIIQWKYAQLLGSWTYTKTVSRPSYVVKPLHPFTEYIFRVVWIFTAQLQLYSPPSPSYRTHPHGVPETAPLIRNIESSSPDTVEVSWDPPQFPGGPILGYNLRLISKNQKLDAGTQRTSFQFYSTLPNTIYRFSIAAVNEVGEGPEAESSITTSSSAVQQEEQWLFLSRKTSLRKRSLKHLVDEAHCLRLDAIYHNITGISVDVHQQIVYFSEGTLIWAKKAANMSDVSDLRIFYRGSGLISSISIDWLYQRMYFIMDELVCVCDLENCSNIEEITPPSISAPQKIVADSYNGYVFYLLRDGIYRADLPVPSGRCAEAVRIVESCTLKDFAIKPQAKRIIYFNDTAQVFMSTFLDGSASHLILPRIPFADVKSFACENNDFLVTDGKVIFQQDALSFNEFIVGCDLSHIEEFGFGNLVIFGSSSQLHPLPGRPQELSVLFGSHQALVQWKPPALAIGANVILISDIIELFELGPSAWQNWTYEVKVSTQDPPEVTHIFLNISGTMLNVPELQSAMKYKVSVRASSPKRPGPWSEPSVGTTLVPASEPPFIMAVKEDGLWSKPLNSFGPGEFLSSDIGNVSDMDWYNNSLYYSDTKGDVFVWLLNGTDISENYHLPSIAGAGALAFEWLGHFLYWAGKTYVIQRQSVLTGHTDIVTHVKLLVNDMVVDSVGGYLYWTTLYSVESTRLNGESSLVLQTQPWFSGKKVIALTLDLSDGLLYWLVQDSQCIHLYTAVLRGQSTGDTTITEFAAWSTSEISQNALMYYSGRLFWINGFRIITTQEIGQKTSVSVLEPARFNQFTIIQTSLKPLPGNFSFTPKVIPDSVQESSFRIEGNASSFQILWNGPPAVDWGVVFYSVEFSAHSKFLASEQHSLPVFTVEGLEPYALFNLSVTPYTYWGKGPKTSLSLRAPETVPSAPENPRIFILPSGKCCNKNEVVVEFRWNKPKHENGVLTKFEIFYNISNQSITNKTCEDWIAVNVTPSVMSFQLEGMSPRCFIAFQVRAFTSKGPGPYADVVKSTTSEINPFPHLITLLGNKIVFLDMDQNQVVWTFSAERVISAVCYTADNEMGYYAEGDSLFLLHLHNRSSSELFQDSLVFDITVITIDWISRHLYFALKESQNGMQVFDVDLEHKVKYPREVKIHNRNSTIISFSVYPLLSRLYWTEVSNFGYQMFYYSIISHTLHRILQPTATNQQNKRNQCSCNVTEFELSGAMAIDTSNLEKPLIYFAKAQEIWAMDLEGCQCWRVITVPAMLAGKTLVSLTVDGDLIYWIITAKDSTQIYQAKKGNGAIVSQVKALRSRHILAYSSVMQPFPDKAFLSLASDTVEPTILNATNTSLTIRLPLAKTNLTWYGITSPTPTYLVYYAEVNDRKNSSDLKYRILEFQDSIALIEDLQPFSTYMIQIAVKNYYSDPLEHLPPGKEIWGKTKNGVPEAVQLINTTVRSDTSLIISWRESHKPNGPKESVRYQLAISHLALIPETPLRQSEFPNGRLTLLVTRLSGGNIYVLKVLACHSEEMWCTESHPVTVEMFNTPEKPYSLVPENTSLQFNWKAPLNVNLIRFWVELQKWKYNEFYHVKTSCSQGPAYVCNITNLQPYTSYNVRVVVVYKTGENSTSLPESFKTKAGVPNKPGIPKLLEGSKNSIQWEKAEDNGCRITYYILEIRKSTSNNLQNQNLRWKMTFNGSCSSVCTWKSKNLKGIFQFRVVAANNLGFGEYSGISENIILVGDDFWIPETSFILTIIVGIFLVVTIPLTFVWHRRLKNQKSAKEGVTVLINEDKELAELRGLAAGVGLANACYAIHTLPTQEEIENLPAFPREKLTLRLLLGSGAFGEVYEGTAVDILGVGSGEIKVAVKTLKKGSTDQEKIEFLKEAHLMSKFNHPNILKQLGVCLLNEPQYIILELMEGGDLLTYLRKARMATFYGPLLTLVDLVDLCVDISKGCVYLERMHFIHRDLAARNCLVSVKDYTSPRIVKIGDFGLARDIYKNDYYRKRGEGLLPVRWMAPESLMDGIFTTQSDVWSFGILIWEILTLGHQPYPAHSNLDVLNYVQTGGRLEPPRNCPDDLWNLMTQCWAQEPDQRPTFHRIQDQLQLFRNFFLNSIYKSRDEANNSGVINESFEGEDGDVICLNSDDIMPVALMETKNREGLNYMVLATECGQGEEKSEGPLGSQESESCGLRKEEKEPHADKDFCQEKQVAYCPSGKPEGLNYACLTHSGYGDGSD
T1 sequence (Q9UM73 whole entry, change not shown, the tested form may be a part): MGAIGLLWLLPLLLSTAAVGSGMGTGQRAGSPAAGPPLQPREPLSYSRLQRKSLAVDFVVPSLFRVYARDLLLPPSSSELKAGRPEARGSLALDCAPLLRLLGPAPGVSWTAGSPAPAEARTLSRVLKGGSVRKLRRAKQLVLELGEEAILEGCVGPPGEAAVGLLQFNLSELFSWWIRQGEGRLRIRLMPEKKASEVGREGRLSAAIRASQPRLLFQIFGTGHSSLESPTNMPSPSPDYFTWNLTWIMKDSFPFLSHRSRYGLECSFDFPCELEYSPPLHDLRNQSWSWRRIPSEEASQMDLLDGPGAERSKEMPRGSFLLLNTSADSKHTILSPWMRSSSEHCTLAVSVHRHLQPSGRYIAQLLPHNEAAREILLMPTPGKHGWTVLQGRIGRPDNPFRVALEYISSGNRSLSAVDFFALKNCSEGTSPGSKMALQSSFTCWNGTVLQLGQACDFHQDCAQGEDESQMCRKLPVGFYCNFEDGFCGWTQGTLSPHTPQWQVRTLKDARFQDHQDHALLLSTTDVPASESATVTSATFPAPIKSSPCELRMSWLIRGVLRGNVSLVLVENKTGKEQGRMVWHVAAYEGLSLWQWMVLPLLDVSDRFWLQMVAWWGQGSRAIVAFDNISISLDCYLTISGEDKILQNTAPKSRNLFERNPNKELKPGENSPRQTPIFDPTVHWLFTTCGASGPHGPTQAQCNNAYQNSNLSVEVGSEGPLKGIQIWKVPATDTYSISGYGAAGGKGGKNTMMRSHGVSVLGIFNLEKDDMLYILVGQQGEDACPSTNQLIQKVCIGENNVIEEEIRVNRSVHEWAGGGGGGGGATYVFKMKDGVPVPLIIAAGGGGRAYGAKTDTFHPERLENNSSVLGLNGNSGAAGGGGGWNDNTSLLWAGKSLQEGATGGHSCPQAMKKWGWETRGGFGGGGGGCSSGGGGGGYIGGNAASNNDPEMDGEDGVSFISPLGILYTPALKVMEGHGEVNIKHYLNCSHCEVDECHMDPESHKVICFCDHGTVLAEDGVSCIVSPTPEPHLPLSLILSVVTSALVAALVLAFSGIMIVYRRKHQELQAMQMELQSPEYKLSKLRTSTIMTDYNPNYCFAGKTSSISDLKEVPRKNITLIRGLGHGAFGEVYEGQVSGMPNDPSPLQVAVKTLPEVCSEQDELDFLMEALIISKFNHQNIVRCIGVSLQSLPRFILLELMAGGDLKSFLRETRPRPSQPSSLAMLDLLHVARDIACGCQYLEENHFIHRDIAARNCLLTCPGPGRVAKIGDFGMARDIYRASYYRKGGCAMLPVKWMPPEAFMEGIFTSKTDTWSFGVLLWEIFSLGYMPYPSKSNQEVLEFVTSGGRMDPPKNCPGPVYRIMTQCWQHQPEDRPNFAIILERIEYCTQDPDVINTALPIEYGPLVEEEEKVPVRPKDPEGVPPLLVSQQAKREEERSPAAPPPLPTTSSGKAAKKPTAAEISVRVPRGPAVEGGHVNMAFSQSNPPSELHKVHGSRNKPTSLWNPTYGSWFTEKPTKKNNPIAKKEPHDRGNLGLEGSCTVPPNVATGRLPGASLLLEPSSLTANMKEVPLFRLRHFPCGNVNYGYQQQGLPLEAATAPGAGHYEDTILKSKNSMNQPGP

GI50 [2]	IC50 [3]	GI50 [4]	SMILES	IC50 [1]	IC50 [5]
0.892 µM	1.37 µM	0.0002 µM	CC[C@H]1COc2ccc(F)cc2[C@@H](C)Nc2ccn3ncc(c3n2)C(=O)N1 [Compound 4, (6S,13R)-6-ethyl-11-fluoro-13-methyl-6,7,13,14-tetrahydro-1,15-ethenopyrazolo[4,3-f][1,4,8,10]benzoxatriazacyclotridecin-4(5H)-one]	0.0003 µM	1.37 µM
0.116 µM	0.065 µM	0.0028 µM	C[C@H]1Nc2ccn3ncc(c3n2)C(=O)N[C@@H](CO)COc2ccc(F)cc21 [Compound 6, (6S,13R)-11-fluoro-6-(hydroxymethyl)-13-methyl-6,7,13,14-tetrahydro-1,15-ethenopyrazolo[4,3-f][1,4,8,10]benzoxatriazacyclotridecin-4(5H)-one]	0.0005 µM	0.164 µM
2.13 µM	1.5 µM	0.0347 µM	C[C@H]1Nc2ccn3ncc(c3n2)C(=O)N[C@H](CO)COc2ccc(F)cc21 [Compound 8, (6R,13R)-11-fluoro-6-(hydroxymethyl)-13-methyl-6,7,13,14-tetrahydro-1,15-ethenopyrazolo[4,3-f][1,4,8,10]benzoxatriazacyclotridecin-4(5H)-one]	0.017 µM	0.406 µM
0.0002 µM	0.073 µM	0.0002 µM	C[C@H]1Nc2ccn3ncc(c3n2)C(=O)NC[C@H](CF)Oc2ccc(F)cc21 [Compound 9, (7R,13R)-11-fluoro-7-(fluoromethyl)-13-methyl-6,7,13,14-tetrahydro-1,15-ethenopyrazolo[4,3-f][1,4,8,10]benzoxatriazacyclotridecin-4(5H)-one]	0.0004 µM	0.093 µM
0.0963 µM	0.08 µM	0.0002 µM	C[C@H]1Nc2ccn3ncc(c3n2)C(=O)NC[C@@H](CF)Oc2ccc(F)cc21 [Compound 10, (7S,13R)-11-fluoro-7-(fluoromethyl)-13-methyl-6,7,13,14-tetrahydro-1,15-ethenopyrazolo[4,3-f][1,4,8,10]benzoxatriazacyclotridecin-4(5H)-one]	0.0014 µM	0.057 µM
2.43 µM	0.59 µM	0.0189 µM	C[C@H]1Nc2ccn3ncc(c3n2)C(=O)N[C@H](CF)COc2ccc(F)cc21 [Compound 11, (6S,13R)-11-fluoro-6-(fluoromethyl)-13-methyl-6,7,13,14-tetrahydro-1,15-ethenopyrazolo[4,3-f][1,4,8,10]benzoxatriazacyclotridecin-4(5H)-one]	0.002 µM	0.187 µM
1.48 µM	3.21 µM	0.112 µM	C[C@H]1Nc2ccn3ncc(c3n2)C(=O)N[C@@H](CN(C)C)COc2ccc(F)cc21 [Compound 13, (6S,13R)-6-[(dimethylamino)methyl]-11-fluoro-13-methyl-6,7,13,14-tetrahydro-1,15-ethenopyrazolo[4,3-f][1,4,8,10]benzoxatriazacyclotridecin-4(5H)-one]	0.069 µM	4.03 µM
1.91 µM	0.47 µM	0.112 µM	C[C@H]1Nc2ccn3ncc(c3n2)C(=O)N[C@@H](C(F)F)COc2ccc(F)cc21 [Compound 16, (6R,13R)-6-(difluoromethyl)-11-fluoro-13-methyl-6,7,13,14-tetrahydro-1,15-ethenopyrazolo[4,3-f][1,4,8,10]benzoxatriazacyclotridecin-4(5H)-one]	0.0004 µM	0.665 µM
2.69 µM	0.297 µM	0.003 µM	C[C@H]1Nc2ccn3ncc(c3n2)C(=O)N[C@H](C(F)F)COc2ccc(F)cc21 [Compound 17, (6S,13R)-6-(difluoromethyl)-11-fluoro-13-methyl-6,7,13,14-tetrahydro-1,15-ethenopyrazolo[4,3-f][1,4,8,10]benzoxatriazacyclotridecin-4(5H)-one]	0.0002 µM	0.005 µM

The next lines start with the molecule.

SMILES	GI50 [2]	IC50 [3]	GI50 [4]	IC50 [1]	IC50 [5]
CC[C@H]1CNC(=O)c2cnn3ccc(nc23)N[C@H](C)c2cc(F)ccc2O1 [Compound 3, (7S,13R)-7-ethyl-11-fluoro-13-methyl-6,7,13,14-tetrahydro-1,15-ethenopyrazolo[4,3-f][1,4,8,10]benzoxatriazacyclotridecin-4(5H)-one]	0.138 µM	0.083 µM	0.0002 µM	0.0003 µM	0.263 µM
C[C@H]1Nc2ccn3ncc(c3n2)C(=O)NC[C@H](CO)Oc2ccc(F)cc21 [Compound 5, (7R,13R)-11-fluoro-7-(hydroxymethyl)-13-methyl-6,7,13,14-tetrahydro-1,15-ethenopyrazolo[4,3-f][1,4,8,10]benzoxatriazacyclotridecin-4(5H)-one]	2.03 µM	0.794 µM	0.0279 µM	0.0165 µM	0.852 µM
C[C@H]1Nc2ccn3ncc(c3n2)C(=O)NC[C@@H](CO)Oc2ccc(F)cc21 [Compound 7, (7S,13R)-11-fluoro-7-(hydroxymethyl)-13-methyl-6,7,13,14-tetrahydro-1,15-ethenopyrazolo[4,3-f][1,4,8,10]benzoxatriazacyclotridecin-4(5H)-one]	0.715 µM	0.438 µM	0.0226 µM	0.0168 µM	0.19 µM
C[C@H]1Nc2ccn3ncc(c3n2)C(=O)NC[C@H](CN(C)C)Oc2ccc(F)cc21 [Compound 12, (7R,13R)-7-[(dimethylamino)methyl]-11-fluoro-13-methyl-6,7,13,14-tetrahydro-1,15-ethenopyrazolo[4,3-f][1,4,8,10]benzoxatriazacyclotridecin-4(5H)-one]	5.09 µM	2.27 µM	0.13 µM	0.042 µM	1.96 µM
CNC(=O)[C@@H]1CNC(=O)c2cnn3ccc(nc23)N[C@H](C)c2cc(F)ccc2O1 [Compound 14, (7S,13R)-7-(N-methylcarboxamide)-11-fluoro-13-methyl-6,7,13,14-tetrahydro-1,15-ethenopyrazolo[4,3-f][1,4,8,10]benzoxatriazacyclotridecin-4(5H)-one]	> 10 µM	> 10 µM	0.3 µM	0.18 µM	3.78 µM
CNC(=O)[C@H]1CNC(=O)c2cnn3ccc(nc23)N[C@H](C)c2cc(F)ccc2O1 [Compound 15, (7R,13R)-7-(N-methylcarboxamide)-11-fluoro-13-methyl-6,7,13,14-tetrahydro-1,15-ethenopyrazolo[4,3-f][1,4,8,10]benzoxatriazacyclotridecin-4(5H)-one]	> 10 µM	> 10 µM	1 µM	0.16 µM	4.79 µM
C[C@H]1Nc2ccn3ncc(c3n2)C(=O)NC[C@H](C(F)F)Oc2ccc(F)cc21 [Compound 18, (7R,13R)-7-(difluoromethyl)-11-fluoro-13-methyl-6,7,13,14-tetrahydro-1,15-ethenopyrazolo[4,3-f][1,4,8,10]benzoxatriazacyclotridecin-4(5H)-one]	0.0284 µM	0.0247 µM	0.0002 µM	0.0002 µM	0.0986 µM
CC[C@H]1Nc2ccn3ncc(c3n2)C(=O)NCCOc2ccc(F)cc21 [Compound 19, (13R)-13-ethyl-11-fluoro-6,7,13,14-tetrahydro-1,15-ethenopyrazolo[4,3-f][1,4,8,10]benzoxatriazacyclotridecin-4(5H)-one]	0.406 µM	0.193 µM	0.0005 µM	0.0006 µM	0.294 µM
